Counter-ions that a name gives are not always drawn.
Experiments:
[1] = test system: Normal Conscious Rat; experiment: Aquaretic Effects in Normal Conscious Rat (urine volume); assay type: in vivo, rat (Sprague-Dawley, male)
Experimental: Aquaretic Effects in Normal Conscious Rat
Studies were performed with Sprague-Dawley male SPF rats (body weight: 240 to 320 g; 8-week-old). In this experiment, each group consisted of not less than 4 animals and rats were fasted over 16 to 20 hours. The animals were acclimatized in metabolic cages for one hour, then each compound to be tested was dissolved in 100% N,N-dimethylformamide or suspended in 5% gum arabic solution and administered to these animals intravenously (iv.) in a dose of 3 mg/kg or orally (p.o.) in a dose of 30 mg/kg. Immediately after the test compound or vehicle were orally administered, saline (25 ml/kg) was given orally. Spontaneous voided urines were collected for 4 hours after the administration of the compound and the amount of the urine were determined. In this case, the control group consisted of animals to which only 5% gum arabic was orally administered.
In addition, known compounds of Comparative Examples 2 and Comparative Examples 3 and 4 represented by the following formulas were used as control compounds.

[2] = biological target: Vasopressin V2 Receptor (Rattus norvegicus, UniProt Q00788); experiment: biochemical; assay type: binding, rat (Sprague-Dawley, female; kidney crude membrane); conditions: 1 h; 10^-7 M; inhibition rate at this concentration; read-out: Binding Rate of Vasopressin V2 Receptor
Vasopressin V2 Receptor, sequence (Q00788 whole entry): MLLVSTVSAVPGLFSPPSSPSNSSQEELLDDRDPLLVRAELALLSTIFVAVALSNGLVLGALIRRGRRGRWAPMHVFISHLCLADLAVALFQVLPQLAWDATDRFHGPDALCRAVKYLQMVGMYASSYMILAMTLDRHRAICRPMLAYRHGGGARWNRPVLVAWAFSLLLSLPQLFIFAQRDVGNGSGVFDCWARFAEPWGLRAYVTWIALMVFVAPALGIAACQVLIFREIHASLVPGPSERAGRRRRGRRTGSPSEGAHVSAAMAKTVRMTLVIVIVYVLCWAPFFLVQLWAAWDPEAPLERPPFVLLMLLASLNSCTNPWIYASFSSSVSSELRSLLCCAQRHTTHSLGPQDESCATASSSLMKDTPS

[3] = biological target: Vasopressin V1 Receptor (Rattus norvegicus, UniProt P30560); experiment: biochemical; assay type: binding, rat (Sprague-Dawley, female; liver crude membrane); conditions: 1 h; 10^-7 M; inhibition rate at this concentration; read-out: Binding Rate of Vasopressin V1 Receptor
Vasopressin V1 Receptor, sequence (P30560 whole entry): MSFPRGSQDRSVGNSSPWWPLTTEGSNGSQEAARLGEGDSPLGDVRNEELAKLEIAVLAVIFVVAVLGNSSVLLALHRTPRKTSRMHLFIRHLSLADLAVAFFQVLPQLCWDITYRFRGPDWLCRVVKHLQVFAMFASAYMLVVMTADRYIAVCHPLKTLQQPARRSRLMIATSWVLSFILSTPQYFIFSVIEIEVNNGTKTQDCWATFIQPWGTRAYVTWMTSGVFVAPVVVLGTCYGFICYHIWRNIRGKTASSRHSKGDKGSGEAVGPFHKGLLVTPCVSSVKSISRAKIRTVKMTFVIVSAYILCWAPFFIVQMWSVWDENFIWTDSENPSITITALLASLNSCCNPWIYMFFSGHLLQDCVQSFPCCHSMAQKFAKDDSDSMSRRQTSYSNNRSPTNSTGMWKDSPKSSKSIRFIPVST
Experimental: The livers excised from Sprague-Dawley female rats were cut into small pieces, and were homogenized in 50 mM Tris-HCl, pH 7.4 hereunder referred to as "buffer"). The homogenate was centrifuged at 50000×g, at 4° C. for 20 minutes. The pellet was added the buffer in an amount of 10 times the volume of the pellet, the mixture was recentrifuged by the same method as described above to wash the residue. The buffer was further added to the resulting pellet so that the protein content thereof was adjusted to 10 mg/ml to thus give a crude membrane fraction of rat liver. The crude membrane fraction of rat liver was used in the following test. More specifically, 5000 μg of the crude liver membrane was incubated with [^3 H]-Arg-vasopressin V-1 antagonist ([^3 H) vasopressin V1 antagonist: 2 nM) and various concentration (3×10^-12 to 10^-6) of the test compounds in a 1000 μL of buffer containing 10 mM magnesium chloride, 10 mM potassium chloride and 0.1% bovine serum albumin at 25° C. for 60 minutes. Thereafter the incubation mixture was rapidly filtered by vacuum using a cell harvester. The filters were washed with buffer to remove free ligands and excess buffer, and to thus trap labeled ligand linked with the receptor on the filter paper. The filter paper was sufficiently dried and mixed with a liquid scintillator, and the amount of the [^3 H] vasopressin V1 antagonist bonded to the membrane was determined using a liquid scintillation counter. The inhibition rate at each concentration was calculated according to the following equation:
Inhibition Rate (%)=100-[(B-N)/(B0 -N)]×100
Wherein B represents the amount of the [^3 H] vasopressin V1 antagonist bonded to the membrane in the presence of known amounts of the compound to be tested and the [^3 CH] vasopressin V1 antagonist;
B0 represents the amount of the [^3 H] vasopressin V1 antagonist bonded to the membrane in the absence of the compound to be tested;
N represents the amount of the [^3 H] vasopressin V1 antagonist bonded to the membrane in the presence of an excess of vasopressin (10^-6 M).
The IC50 value (the concentration required to cause 50% inhibition of the specific binding of [^3 H]-V1 antagonist) was determined. […] On the other hand, for the compounds which were investigated only one concentration (10^-7 M), the inhibition rate at that concentration was defined to be the binding rate.

| inhibition at 0.1 µM [2] | inhibition at 0.1 µM [3] | SMILES | Amount of Urine Volume ([1]; 3 mg/kg, i.v.) | Amount of Urine Volume ([1]; 30 mg/kg, p.o.) |
| --- | --- | --- | --- | --- |
|  |  | Cc1ccccc1C(=O)Nc1ccc(C(=O)N2Cc3cccn3Cc3ccccc32)cc1 [Comp. Ex. 4, reference compound] | 34.8 ml/kg/0-4 hr. | 22.6 ml/kg/0-4 hr. |
|  |  | O=C(Nc1ccc(C(=O)N2C[C@@H]3CCCN3c3ccccc32)cc1)c1ccccc1-c1ccccc1 [Example 1, (3aS)-5-[4-[(2-Phenylbenzoyl)Amino]Benzoyl]-1,2,3,3a,4,5-Hexahydro-Pyrrolo[1,2-a]Quinoxaline] | 33.1 ml/kg/0-4 hr. | 40.3 ml/kg/0-4 hr. |
|  |  | O=C(Nc1ccc(C(=O)N2C[C@@H]3C[C@@H](O)CN3c3ccccc32)cc1)c1ccccc1-c1ccccc1 [Example 3] | 29.5 ml/kg/0-4 hr. | 54.0 ml/kg/0-4 hr. |
|  |  | O=C(Nc1ccc(C(=O)N2C[C@@H]3C[C@H](O)CN3c3ccccc32)cc1)c1ccccc1-c1ccccc1 [Example 7, (2S, 3aS)-2-Hydroxy-5-[4-[(2-Phenylbenzoyl) Amino]Benzoyl]-1,2,3,3a,4,5-Hexahydro-Pyrrolo[1,2-a]Quinoxaline] | 29.3 ml/kg/0-4 hr. | 33.8 ml/kg/0-4 hr. |
| 100% | 16.3% | Cc1ccc(-c2ccccc2C(=O)Nc2ccc(C(=O)N3C[C@@H]4C[C@H](O)CN4c4ccccc43)cc2)cc1 [Example 8, (2S, 3aS)-2-Hydroxy-5-[4-[[2-(4-Tolyl) Benzoyl]Amino]Benzoyl]-1,2,3,3a,4,5-Hexahydro-Pyrrolo[1,2-a]Quinoxahine] |  |  |
|  |  | CN(C)[C@H]1C[C@H]2CN(C(=O)c3ccc(NC(=O)c4ccccc4-c4ccccc4)cc3)c3ccccc3N2C1.Cl [Example 10, (2S, 3aS)-2-(N,N-Dimethylamino)-5-[4-[(2-Phenylbenzoyl) Amino]Benzoyl]-1,2,3,3a,4,5-Hexahydro-Pyrrolo[1,2-a]Quinoxaline Hydrochloride] | 22.2 ml/kg/0-4 hr. | 39.6 ml/kg/0-4 hr. |
| 100% | 34% | O=C(Nc1ccc(C(=O)N2C[C@H]3CCCN3c3ccccc32)cc1)c1ccccc1-c1ccccc1 [Example 11, (3aR)-5-[4-[(2-Phenylbenzoyl) Amino]Benzoyl]-1,2,3,3a,4,5-Hexahydro-Pyrrolo[1,2-a]Quinoxaline] | 56.5 ml/kg/0-4 hr. | 69.6 ml/kg/0-4 hr. |
|  |  | Cc1ccc(-c2ccccc2C(=O)Nc2ccc(C(=O)N3C[C@H]4CCCN4c4ccccc43)cc2)cc1 [Example 12, (3aR)-5-[4-[[2-(4-Tolyl) Benzoyl]Amino]Benzoyl]-1,2,3,3a,4,5-Hexahydro-Pyrrolo[1,2-a]Quinoxaline] | 66.0 ml/kg/0-4 hr. | 12.8 ml/kg/0-4 hr. |
|  |  | Cc1ccc(-c2ccccc2C(=O)Nc2ccc(C(=O)N3C[C@H]4C[C@@H](O)CN4c4ccccc43)cc2)cc1 [Example 14, (2R,3aR)-2-Hydroxy-5-[4-[[2-(4-Tolyl) Benzoyl]Amino]Benzoyl]-1,2,3,3a-4,5-Hexahydro-Pyrrolo[1,2-a]Quinoxaline] | 60.6 ml/kg/0-4 hr. | 90.3 ml/kg/0-4 hr. |
| 100% | 52.4% | O=C(Nc1ccc(C(=O)N2C[C@H]3C[C@H](O)CN3c3ccccc32)cc1)c1ccccc1-c1ccccc1 [Example 17, (2S, 3aR)-2-Hydroxy-5-[4-[(2-Phenylbenzoyl) Amino]Benzoyl]-1,2,3,3a,4,5-Hexahydro-Pyrrolo[1,2-a]Quinoxaline] | 58.6 ml/kg/0-4 hr. | 26.3 ml/kg/0-4 hr. |
| 100% | 19.5% | CN(C)[C@H]1C[C@@H]2CN(C(=O)c3ccc(NC(=O)c4ccccc4-c4ccccc4)cc3)c3ccccc3N2C1 [Example 21, (2S, 3aR)-2-(N,N-Dimethylamino)-5-[4-[(2-Phenylbenzoyl) Amino]Benzoyl]-1,2,3,3a,4,5-Hexahydro-Pyrrolo[1,2-a]Quinoxaline] | 47.6 ml/kg/0-4 hr. | 81.4 ml/kg/0-4 hr. |
| 100% | 33.5% | Cc1ccc(-c2ccccc2C(=O)Nc2ccc(C(=O)N3C[C@H]4C[C@H](N(C)C)CN4c4ccccc43)cc2)cc1 [Example 22, (2S, 3aR)-2-(N,N-Dimethylamino)-5-[4-[[2-(4-Tolyl) Benzoy]Amino]Benzoyl]-1,2,3,3a,4,5-Hexahydro-Pyrrolo[1,2-a]Quinoxaline Hydrochloride] | 58.8 ml/kg/0-4 hr. | 79.6 ml/kg/0-4 hr. |
|  |  | O=C(Nc1ccc(C(=O)N2C[C@H]3C[C@H](F)CN3c3ccccc32)cc1)c1ccccc1-c1ccccc1 [Example 23, (2S, 3aR)-2-Fluoro-5-[4-[(2-Phenylbenzoyl) Amino]Benzoyl]-1,2,3,3a,4,5-Hexahydro-Pyrrolo[1,2-a]Quinoxaline] | 27.2 ml/kg/0-4 hr. | 35.6 ml/kg/0-4 hr. |
| 100% | 16.5% | Cc1ccc(-c2ccccc2C(=O)Nc2ccc(C(=O)N3C[C@H]4CC(=O)CN4c4ccccc43)cc2)cc1 [Example 24] | 49.4 ml/kg/0-4 hr. | 46.1 ml/kg/0-4 hr. |
| 100% | 4% | Cc1ccc(-c2ccccc2C(=O)Nc2ccc(C(=O)N3C[C@@H]4CCCN4C(=O)c4ccccc43)cc2)cc1 [Example 26, (11aS)-10-[4-[[2-(4-Tolyl) Benzoyl]Amino]Benzoyl]-1,2,3,10,11,11a-Hexahydro-5H-Pyrrolo[2,1-c][1,4]Benzodiazepin-5-One] | 72.3 ml/kg/0-4 hr. | 88.3 ml/kg/0-4 hr. |
| 99.5% | 18.9% | O=C(Nc1ccc(C(=O)N2C[C@@H]3C[C@H](O)CN3C(=O)c3ccccc32)cc1)c1ccccc1-c1ccccc1 [Example 29, (2S, 11aS)-2-Hydroxy-10-[4-[(2-Phenylbenzoyl) Amino]Benzoyl]-1,2,3,10,11,11a-Hexahydro-5H-Pyrrolo[2,1-c][1,4]Benzodiazepin-5-One] | 50.4 ml/kg/0-4 hr. | 14.0 ml/kg/0-4 hr. |
| 100% | 2.8% | O=C(Nc1ccc(C(=O)N2C[C@@H]3CCCN3C(=S)c3ccccc32)cc1)c1ccccc1-c1ccccc1 [Example 37, (11aS)-10-[4-[(2-Phenylbenzoyl) Amino]Benzoyl]-1,2,3,10,11, 11a-Hexahydro-5H-Pyrrolo[2,1-c][1,4]Benzodiazepin-5-Thione] | 40.7 ml/kg/0-4 hr. | 21.1 ml/kg/0-4 hr. |
|  |  | Cl.O=C(Nc1ccc(C(=O)N2C[C@H]3C[C@@H](O)CN3Cc3ccccc32)cc1)c1ccccc1-c1ccccc1 [Example 45, (2R,11aR)-2-Hydroxy-10-[4-[(2-Phenylbenzoyl) Amino]Benzoyl]-1,2,3,10,11,11a-Hexahydro-5H-Pyrrolo[2,1-c][1,4]Benzodiazepine Hydrochloride] | 51.4 ml/kg/0-4 hr. | 93.9 ml/kg/0-4 hr. |
|  |  | CC(=O)O[C@H]1C[C@@H]2CN(C(=O)c3ccc(NC(=O)c4ccccc4-c4ccccc4)cc3)c3ccccc3CN2C1 [Example 46, (2S, 11aR)-2-Acetoxy-10-[4-[(2-Phenylbenzoyl) Amino]Benzoyl]-1,2,3,10,11,11a-Hexahydro-5H-Pyrrolo[2,1-c][1,4]Benzodiazepine] | 82.5 ml/kg/0-4 hr. | 118.8 ml/kg/0-4 hr. |
|  |  | O=C(Nc1ccc(C(=O)N2CC[C@H]3CCCN3c3ccccc32)cc1)c1ccccc1-c1ccccc1 [Example 51, (3aR)-6-[4-[(2-Phenylbenzoyl) Amino]Benzoyl]-2,3,3a,4,5,6-Hexahydro-1H-Pyrrolo[1,2-a][1,5]Benzodiazepine] | 63.8 ml/kg/0-4 hr. | 21.7 ml/kg/0-4 hr. |
|  |  | CN(C)C1CC2CCN(C(=O)c3ccc(NC(=O)c4ccccc4-c4ccccc4)cc3)c3ccccc3N2C1.Cl [Example 56, (2S, 3aR)-2-(N,N-dimethylamino)-6-[4-[(2-phenylbenzoyl)amino]benzoyl]-2,3,3a,4,5,6-hexahydro-1H-Pyrrolo[1,2-a][1,5]benzodiazepinehydrochloride] | 87.4 ml/kg/0-4 hr. | 116.4 ml/kg/0-4 hr. |

| SMILES | inhibition at 0.1 µM [2] | inhibition at 0.1 µM [3] | Amount of Urine Volume ([1]; 3 mg/kg, i.v.) | Amount of Urine Volume ([1]; 30 mg/kg, p.o.) |
| --- | --- | --- | --- | --- |
| CC(=O)O[C@H]1C[C@@H]2CN(C(=O)c3ccc(NC(=O)c4ccccc4-c4ccc(C)cc4)cc3)c3ccccc3N2C1 [Example 16, (2S, 3aR)-2-Acetoxy-5-[4-[[2-(4-Tolyl) Benzoyl]Amino]Benzoyl]-1,2,3,3a,4,5-Hexahydro-Pyrrolo[1,2-a]Quinoxaline] | 100% | 68.2% | 71.0 ml/kg/0-4 hr. | 72.0 ml/kg/0-4 hr. |
| CC(=O)O[C@H]1C[C@@H]2CCN(C(=O)c3ccc(NC(=O)c4ccccc4-c4ccccc4)cc3)c3ccccc3N2C1 [Example 53, (2S, 3aS)-2-Acetoxy-6-[4-[(2-Phenylbenzoyl) Amino]Benzo]-2,3,3a,4,5,6-Hexahydro-1H-Pyrrolo[1,2-a][1,5]Benzodiazepine] | 97.9% | 63.8% |  |  |
